# Laboratory results: BindingDB's records for patent US20250304587 (Jiangsu Tasly Diyi Pharmaceutical, 2025)
# Target: Cytochrome P450 2C19 (Homo sapiens, UniProt P33261)
# Assay: Evaluation of Compound Inhibition of Cytochrome P450
# Description: Enzymatic experiments were performed to quantify the inhibition of CYP450 enzyme activity of each isoform of CYP450 by small molecule inhibitors through fluorescence generated by the oxidation of the substrate by cytochrome P450. […] The Solution B composition used for the experiment was: 40 U/mL G6PDH (Sigma-aldrich, Cat #G6378). The substrate mix was 0.05× Solution A, 0.01× Solution B, 50 mM Potassium Phosphate, 0.01 mM BOMCC/0.01 mM EOMCC/0.001 mM DBOMF.
# Chain of Cytochrome P450 2C19 (P33261 whole entry): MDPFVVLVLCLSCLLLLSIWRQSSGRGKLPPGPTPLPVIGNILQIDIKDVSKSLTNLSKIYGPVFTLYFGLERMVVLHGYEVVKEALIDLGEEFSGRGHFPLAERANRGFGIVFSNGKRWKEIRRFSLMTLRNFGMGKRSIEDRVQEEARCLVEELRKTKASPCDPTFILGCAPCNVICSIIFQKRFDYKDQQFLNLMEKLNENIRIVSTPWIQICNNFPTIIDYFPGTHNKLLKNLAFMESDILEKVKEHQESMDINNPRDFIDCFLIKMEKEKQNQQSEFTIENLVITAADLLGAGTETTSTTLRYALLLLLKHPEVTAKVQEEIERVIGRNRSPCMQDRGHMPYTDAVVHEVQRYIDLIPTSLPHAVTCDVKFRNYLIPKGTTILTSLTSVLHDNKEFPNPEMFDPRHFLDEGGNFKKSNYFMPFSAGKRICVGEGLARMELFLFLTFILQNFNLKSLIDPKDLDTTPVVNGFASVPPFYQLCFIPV
row,SMILES,IC50
1,"C=CCn1c(=O)c2cnc(Nc3ccc(N4CCC5(CCN(C)CC5)CC4)cc3)nc2n1-c1ccc2c(n1)[C@](C)(O)C1(CC2)CC1 (racemic) [US20250304587, Compound 44]",1 to 10 µM
2,"C=CCn1c(=O)c2cnc(Nc3ccc(N4CC5CC(C4)N5C)cc3)nc2n1-c1ccc2c(n1)[C@@](C)(O)C1(CC2)CC1 [US20250304587, Compound 7a]",1 to 10 µM
